Source: US20080107619A1, “Carbohydrate based cellulase inhibitors as feeding stimulants in termites” (University of Florida Research Foundation, Inc., priority 2006, published 2008)
Entries after “also recorded” stand apart in the source; their conditions may differ.

System: R. flavipes worker termites
Assay: No-choice Petri dish in vivo feeding bioassay (feeding and mortality, 24 days)
Conditions: for Normalized Avg. Totals: relative to control [0] average; for maximum mortality: after 24 days
Experimental: R. flavipes colonies were collected from the University of Florida campus during spring and summer 2006. Colonies were maintained in sealed plastic boxes (30×24×10 cm) at 22±1° C. and 69±1% RH. Colonies were maintained without soil and provisioned with moist brown paper towels and wood shims. Colonies that were acclimated under the above conditions for <2 months are referred to as “field colonies”, while those held for >6 months are referred to as “lab colonies”. Unless otherwise stated, all studies reported here were run with lab colonies.
Two different termite colonies were used. A lab colony was used in bioassays that tested the effects of CBI and FMG; this was the same colony used in cellulase optimization studies, cellulase distribution studies, and for […] determination. The other colony was a field colony, which was used to repeat the FMG assay along side FMCB. The no-choice feeding bioassay was derived from a previously-developed and slightly modified caste differentiation assay reported by M. E. Scharf, et al. in “Caste differentiation responses of two sympatric Reticulitermes termite species to juvenile hormone homologs and synthetic juvenoids in two laboratory assays.” Insectes Soc. […] Acad. Sci. USA, 103 (2006) 4499-504.
Prior to treatment, paper disks 30 were weighed. Treatments and controls were held in complete darkness at approximately 26±1° C. and 69±1% RH. The inhibitor concentrations tested were 75, 50, 25, 10, 5, 1, 0.5, and 0.1 mM (approximately […] wt/wt). For each inhibitor, paper disks were treated with 50 μl of a given concentration. Control disks received 50 μl methanol alone. Treated papers were allowed to dry in a fume hood for 30 min before placing in dishes, wetting with 25 μl water, and adding 15 termites.
Termite feeding on the filter papers was readily observable and quantifiable from the bioassays. Average feeding through the entire bioassay was summed within each replicate and calculated as a percentage of feeding relative to untreated controls, then averaged across replicates.
The experimental design consisted of three replicate dishes per concentration. All assays were carried out for a total of 24 days. Termite mortality and filter paper moisture were monitored every 4th day. Every 8th day, old paper disks were replaced with new ones. These new filter paper disks were treated with identical inhibitor concentrations. The removed filter paper disks 30, showing the results of termite feeding (FIG. 6), were dried and re-weighed. At the end of each assay, data were summarized as cumulative feeding per live termite and cumulative termite mortality. Data were analyzed by non-parametric t-tests (p<0.05) with commercially-available software for use in statistical analysis, designed by SAS Institute, Cary, N.C.
FIGS. 7A-7F provide graphic data on in vivo feeding bioassays conducted with the carbohydrate-based cellulase inhibitors to assess the impact on termite feeding and survivorship. Feeding results are expressed as the cumulative percent of untreated controls through 24 days. Mortality results are expressed as percent mortality after 24 days. […] Error bars represent standard error of the mean.

[1] = 0.1 mM test conc., 1st ROUND (lab colony)
[2] = 0.1 mM test conc., 2nd ROUND (field colony)
[3] = 0.5 mM test conc., 1st ROUND (lab colony)
[4] = 0.5 mM test conc., 2nd ROUND (field colony)
[5] = 1 mM test conc., 1st ROUND (lab colony)
[6] = 1 mM test conc., 2nd ROUND (field colony)
[7] = 5 mM test conc., 1st ROUND (lab colony)
[8] = 5 mM test conc., 2nd ROUND (field colony)
[9] = 10 mM test conc., 1st ROUND (lab colony)
[10] = 10 mM test conc., 2nd ROUND (field colony)
[11] = 25 mM test conc., 1st ROUND (lab colony)
[12] = 25 mM test conc., 2nd ROUND (field colony)
[13] = 50 mM test conc., 1st ROUND (lab colony)
[14] = 50 mM test conc., 2nd ROUND (field colony)
[15] = 75 mM test conc., 1st ROUND (lab colony)
[16] = 75 mM test conc., 2nd ROUND (field colony)

Which results are given for fluoromethyl glucose [FMG]?
Average Feeding in mg per Live Termite (std. err.) days 1-8 [1]: 0.52 (0.03) mg per Live Termite; Average Feeding in mg per Live Termite (std. err.) days 9-16 [1]: 0.48 (0.10) mg per Live Termite; Average Feeding in mg per Live Termite (std. err.) days 17-24 [1]: 0.45 (0.04) mg per Live Termite; Normalized Avg. Totals [1]: 0.98; Average Feeding in mg per Live Termite (std. err.) days 1-8 [2]: 0.20 (0.04) mg per Live Termite; Average Feeding in mg per Live Termite (std. err.) days 9-16 [2]: 0.33 (0.05) mg per Live Termite; Average Feeding in mg per Live Termite (std. err.) days 17-24 [2]: 0.48 (0.07) mg per Live Termite; Normalized Avg. Totals [2]: 0.92; Average Feeding in mg per Live Termite (std. err.) days 1-8 [3]: 0.57 (0.08) mg per Live Termite; Average Feeding in mg per Live Termite (std. err.) days 9-16 [3]: 0.54 (0.07) mg per Live Termite; Average Feeding in mg per Live Termite (std. err.) days 17-24 [3]: 0.44 (0.07) mg per Live Termite; Normalized Avg. Totals [3]: 0.96; Average Feeding in mg per Live Termite (std. err.) days 1-8 [4]: 0.34 (0.01) mg per Live Termite; Average Feeding in mg per Live Termite (std. err.) days 9-16 [4]: 0.34 (0.03) mg per Live Termite; Average Feeding in mg per Live Termite (std. err.) days 17-24 [4]: 0.47 (0.03) mg per Live Termite; Normalized Avg. Totals [4]: 1.03; Average Feeding in mg per Live Termite (std. err.) days 1-8 [5]: 0.55 (0.02) mg per Live Termite; Average Feeding in mg per Live Termite (std. err.) days 9-16 [5]: 0.58 (0.03) mg per Live Termite; Average Feeding in mg per Live Termite (std. err.) days 17-24 [5]: 0.51 (0.03) mg per Live Termite; Normalized Avg. Totals [5]: 0.92; Average Feeding in mg per Live Termite (std. err.) days 1-8 [6]: 0.36 (0.04) mg per Live Termite; Average Feeding in mg per Live Termite (std. err.) days 9-16 [6]: 0.38 (0.01) mg per Live Termite; Average Feeding in mg per Live Termite (std. err.) days 17-24 [6]: 0.39 (0.06) mg per Live Termite; Normalized Avg. Totals [6]: 1.04; Average Feeding in mg per Live Termite (std. err.) days 1-8 [7]: 0.39 (0.06) mg per Live Termite; Average Feeding in mg per Live Termite (std. err.) days 9-16 [7]: 0.58 (0.07) mg per Live Termite; Average Feeding in mg per Live Termite (std. err.) days 17-24 [7]: 0.39 (0.07) mg per Live Termite; Normalized Avg. Totals [7]: 0.72; Average Feeding in mg per Live Termite (std. err.) days 1-8 [8]: 0.29 (0.02) mg per Live Termite; Average Feeding in mg per Live Termite (std. err.) days 9-16 [8]: 0.29 (0.03) mg per Live Termite; Average Feeding in mg per Live Termite (std. err.) days 17-24 [8]: 0.43 (0.05) mg per Live Termite; Normalized Avg. Totals [8]: 0.92; Average Feeding in mg per Live Termite (std. err.) days 1-8 [9]: 0.32 (0.07) mg per Live Termite; Average Feeding in mg per Live Termite (std. err.) days 9-16 [9]: 0.38 (0.09) mg per Live Termite; Average Feeding in mg per Live Termite (std. err.) days 17-24 [9]: 0.41 (0.05) mg per Live Termite; Normalized Avg. Totals [9]: 0.93; Average Feeding in mg per Live Termite (std. err.) days 1-8 [10]: 0.17 (0.02) mg per Live Termite; Average Feeding in mg per Live Termite (std. err.) days 9-16 [10]: 0.25 (0.02) mg per Live Termite; Average Feeding in mg per Live Termite (std. err.) days 17-24 [10]: 0.45 (0.04) mg per Live Termite; Normalized Avg. Totals [10]: 0.79; Average Feeding in mg per Live Termite (std. err.) days 1-8 [11]: 0.27 (0.04) mg per Live Termite; Average Feeding in mg per Live Termite (std. err.) days 9-16 [11]: 0.22 (0.05) mg per Live Termite; Average Feeding in mg per Live Termite (std. err.) days 17-24 [11]: 0.34 (0.02) mg per Live Termite; Normalized Avg. Totals [11]: 0.83; Average Feeding in mg per Live Termite (std. err.) days 1-8 [12]: 0.25 (0.04) mg per Live Termite; Average Feeding in mg per Live Termite (std. err.) days 9-16 [12]: 0.31 (0.05) mg per Live Termite; Average Feeding in mg per Live Termite (std. err.) days 17-24 [12]: 0.40 (0.02) mg per Live Termite; Normalized Avg. Totals [12]: 0.87; Average Feeding in mg per Live Termite (std. err.) days 1-8 [13]: 0.30 (0.01) mg per Live Termite; Average Feeding in mg per Live Termite (std. err.) days 9-16 [13]: 0.34 (0.01) mg per Live Termite; Average Feeding in mg per Live Termite (std. err.) days 17-24 [13]: 0.34 (0.02) mg per Live Termite; Normalized Avg. Totals [13]: 0.99; Average Feeding in mg per Live Termite (std. err.) days 1-8 [14]: 0.25 (0.02) mg per Live Termite; Average Feeding in mg per Live Termite (std. err.) days 9-16 [14]: 0.28 (0.03) mg per Live Termite; Average Feeding in mg per Live Termite (std. err.) days 17-24 [14]: 0.29 (0.01) mg per Live Termite; Normalized Avg. Totals [14]: 0.74; Average Feeding in mg per Live Termite (std. err.) days 1-8 [15]: 0.17 (0.03) mg per Live Termite; Average Feeding in mg per Live Termite (std. err.) days 9-16 [15]: 0.21 (0.02) mg per Live Termite; Average Feeding in mg per Live Termite (std. err.) days 17-24 [15]: 0.28 (0.02) mg per Live Termite; Normalized Avg. Totals [15]: 0.67; Average Feeding in mg per Live Termite (std. err.) days 1-8 [16]: 0.21 (0.03) mg per Live Termite; Average Feeding in mg per Live Termite (std. err.) days 9-16 [16]: 0.19 (0.07) mg per Live Termite; Average Feeding in mg per Live Termite (std. err.) days 17-24 [16]: 0.27 (0.05) mg per Live Termite; Normalized Avg. Totals [16]: 0.60; Effect on feeding (cumulative percent of untreated controls through 24 days) (across tested concentrations 0.1-75 mM, FIGS. 7A-7C, 8A-8B): did not stimulate consumption at any concentration; also recorded: little stimulatory effects at any concentration; mortality, field colony termites (field colony, FIG. 13): approximately 30%; maximum mortality (highest FMG concentration, FIG. 7D (2 colonies averaged)): approximately 20%; maximum mortality (highest concentration tested, FIG. 10A): 10%; mortality, lab colony termites (lab colony, FIG. 13): 2-3%
